# Test results published in patent US20220105157A1, “Compositions and Methods for Promoting Angiogenesis in the Eye” (The Regents of the University of California, priority 2019, published 2022).
# What was measured:
# BCE cells = assay: Gene expression in LIF-treated BCE cells (RNA-seq, qRT-PCR); format: cell-based, bovine
# Method: BCE and BAE cells, after the indicated treatments, were lysed with Trizol reagent (Invitrogen, CAT #15596026) and subjected to RNA extraction following manufacturer's instructions. RNA concentrations were determined with Nanodrop 2000 (ThermoFisher Scientific) and 1 μg of total RNAs were reverse-transcribed to cDNAs using the High-Capacity cDNA Reverse Transcription Kit (Applied Biosystems, CAT #4368814). Equal amounts (generally 10 ng/reaction) of cDNAs were subjected to qRT-PCR analyses using the TaqMan Fast Advanced Master Mix (Applied Biosystems, CAT #4444557) and the ViiA7 Real-time PCR system. Relative mRNA levels of the examined genes were normalized to the internal control RPLP0 (Ribosomal Protein Lateral Stalk Subunit P0), determined by comparing with control sample group, and reported as fold changes. TaqMan gene expression assay probes were used: bovine RPLP0 (Bt03218086_ml), bovine STAT3 (Bt03259865_ml), bovine CTSL1 (Bt03257307_ml and Bt03257309_ml), bovine CTSB (Bt03259161_ml), bovine MYC (Bt03260377_ml), bovine JunB (Bt03246919_s1), bovine CCNA2 (Bt03240503_g1), bovine CCNB1 (Bt03237853_g1), and bovine PIM1 (Bt03212957_ml). The experiment was carried out in triplicate and repeated three times.
# guinea pig skin = assay: Vessel permeability in guinea pig skin (Evans blue); format: in vivo; conditions: intradermal 1, 5, 25, 100, 200 ng per injection site
# Method: In FIG. 5A, Hairless male guinea pigs (Crl: HA-Hrhr/IAF, 450-500 g, Charles River Laboratories) were anesthetized by intraperitoneal (i.p.) administration of xylazine (5 mg/kg) and ketamine (75 mg/kg). The animals then received an intravenous injection (penile vein) of 1 ml of 1% Evans blue dye. After 15 min, intradermal injections (0.05 ml/per site) of different doses (1, 5, 25, 100, 200 ng per injection site) of rhLIF in PBS were administrated into the area of trunk posterior to the shoulder. 0.05 ml of PBS and 25 ng of VEGF in 0.05 ml of PBS were injected as negative and positive controls. 30 min after the intradermal injections, animals were euthanized by i.p. injection of pentobarbital (200 mg/kg). Skin tissues were dissected from the connective tissues and photographed, n=2. In FIG. 5B, Vascular leakage is shown in mouse retina. LIF (10 ng) or VEGF (100 ng) was injected in the vitreous cavity (0.1% BSA/PBS as control). TRITC-dextran was used to indicate the vascular leakage. Retinal vasculature was labeled by FITC-lectin, n=5.
# [1] = test system: bovine choroidal endothelial (BCE) cells; assay: BCE endothelial cell proliferation assay (alamar blue); format: cell-based
# Method: (§1) The bovine endothelial proliferation assays were performed essentially as previously described (63, 64). BCE (1×10^3 cells/well) or BRE (5×10^2 cells/well) cells were seeded in 96-well plates in the culture medium (DMEM-low glucose supplemented with 10% BCS, 2 mM glutamine and antibiotics) plus testing materials with a total volume of 200 μl per well. BAE cells were plated in 96-well plates at a density of 2×10^3 cells in the culture medium (DMEM-low glucose supplemented with 1% BCS and antibiotics) plus testing material with a total volume of 200 μl per well. HRME cells were seeded at a density of 1×10^3 cells/well in gelatin-coated 96-well plates in assay medium (DMEM-low glucose supplemented with 20% FBS and antibiotics) plus testing materials to make a total volume 200 μl per well. For assays involving antibodies or small-molecule inhibitors, inhibitors or vehicle controls were first added and then test materials were added one hour later. After 6 days (unless otherwise specified), cells were incubated with alamar blue for 4 h. Fluorescence was measured at 530 nm excitation wavelength and 590 nm emission wavelength. Each experiment was carried out in duplicate/triplicate and repeated at least three times.
# BAE cells = assay: Annexin V staining for cell death; format: cell-based, bovine; conditions: BAE cells treated with LIF (10 ng/ml) for 24 hours
# Method: BAE cells were plated at a density of 2×10^4 cells/well with 1 ml of culture medium (DMEM-low glucose plus 10% BCS) in 12-well plates and then incubated at 37° C. overnight. After removal of culture medium, cells were incubated in 0.5 ml of DMEM-low glucose plus 1% BCS. LIF (10 ng/ml) and vehicle control (0.1% BSA in PBS) were added to the cells. Following LIF treatment for 24 hours, cells were examined for cell death marker Annexin V using Annexin V-Cy5 Apoptosis Staining Detection Kit (Abcam, CAT #ab14150) according to manufacturer's instructions. Briefly, cell culture medium was removed and 0.5 ml of Annexin V binding solution was laid over onto the cells. Cells were incubated at room temperature for 5 min following addition of 5 μl of Annexin V-Cy5. Then, the staining solution was discarded and replaced with 0.5 ml of Annexin V binding solution. Imaging of Annexin V staining were performed using Keyence Microscope BZ-X710 (Keyence Corporation, Osaka, Japan). Four random fields were selected and the percentages of Annexin V-staining area in total cell-covered area as indicatives for cell death were determined using ImageJ software. The experiment was carried out in triplicate and repeated three time.
# [2] = test system: bovine retinal endothelial (BRE) cells; assay: BRE endothelial cell proliferation assay (alamar blue); format: cell-based
# Method: as §1
substance,measurement,setting,value
"LIF: recombinant human leukemia inhibitory factor, a member of the IL-6 family of cytokines",upregulation of IGFBP3,"BCE cells; BCE cells incubated with LIF for 6 hours, RNA-seq",not in BCE cells
same,MYC expression,"BCE cells; BCE cells, LIF treatment",upregulation
same,cathepsin L mRNA (CTSL) levels,"BCE cells; BCE cells, vehicle or LIF, qRT-PCR",not detectable
same,vascular permeability in guinea pig skin,guinea pig skin,does not induce vascular permeability
same,stimulation of BCE cell growth (mitogenic activity),[1],stimulated growth of BCE cells
same,Annexin V positive cells (cell death marker),BAE cells,increased proportion of cells were Annexin V positive
same,mitogenic activity on BRE cells,[2],exerted mitogenic activity
